Test system: lung cancer cell (Lewis Lung Carcinoma: LLC)
Experiment: Anticancer animal test: Lewis Lung Carcinoma transplanted to mice, tumor volume and weight after 14 days of administration
Assay type: in vivo, mouse
Details: LLC-transplanted BDF1 male mice, extracts 200 mg/kg orally daily, Taxol 50 mg/kg intraperitoneally daily, for 14 days
Experimental: In order to test an anticancer effect of the mixture extract of Phellinus linteus and vegetable worms, from Examples 1 to 7, and Comparative 1, an animal test was carried out. A mouse used for the experiment was bought from Jung Ang Lab. Animal Inc. (black, Japan, BDF1 male, weight: 20±2 g). The breeding temperature was 22±2° C., and solid feed stuff (Samyang feed Co.) and water were sufficiently supplied. […]
A solvent for the extraction was an extra pure reagent (E.P.). For the test sample, a sterilized saline solution manufactured by Daihan Pharm Co. Ltd. was used. For the culture of a cancer cell, an RPMI 1640 medium (WelGENE Inc.) was used, and Trypsin-EDTA was manufactured by GIBCO. Besides, a test tube required for cell culture, a culture flask, and a filter for obtaining a cancer cell were manufactured by Falcon. Devices used for cancer transplantation were disinfected at 120° C. for 30 min, and a cancer volume was measured by a Digital Caliper.
A lung cancer cell (Lewis Lung Carcinoma: LLC) used for the experiment was distributed from the Korea Research Institute of Bioscience and Biotechnology. The lung cancer cell (Lewis Lung Carcinoma: LLC) was cultured by RPMI 1640 medium added with 10% FBS in a 37° C. incubator, and for the detachment from an attachment surface, Trypsin-EDTA was used. When the cells are filled up in a 200 ml culture flask, they were transplanted to two animals. After the cells were grown in vivo, they were used for an animal test.
In an anticancer animal test, a tumor grown up to a size of about 15×15×15 mm^3 was separated, and a cancer cell was separated from other cells by using a filer (Falcon). […] From the day after the cancer transplantation, for 14 days, powder obtained by mixing Phellinus linteus and vegetable worms at a weight ratio of 1:1 (Example 1), 1:3(Example 2), 3:1(Example 3), 1:5(Example 4), 5:1(Example 5), 1:10(Example 6), 10:1(Example 7) was orally administered daily to a black mouse (Japan) in an amount of 200 mg/kg. Meanwhile, as a positive control group, Taxol was intraperitoneally injected daily in an amount of 50 mg/kg once a day for 14 days. After 14 days, the administration of the extract powder of Phellinus linteus and vegetable worms was stopped, and a Digital Caliper was used to measure the results. […] After the measurement of a tumor volume, a tumor lump was obtained through an operation and its weight was measured. An inhibition ratio of tumor weight (IRTW) was calculated by (TW of control−TW of test)×100/TW of control.
All data were indicated by mean±S.D., and the analysis was carried out by Anova test. Also, when p values are 0.05 or less, they were determined to have significance.

Structure (SMILES): CC(=O)O[C@H]1C(=O)[C@@]2(C)[C@H]([C@H](OC(=O)c3ccccc3)[C@]3(O)C[C@H](OC(=O)[C@H](O)[C@@H](NC(=O)c4ccccc4)c4ccccc4)C(C)=C1C3(C)C)[C@]1(OC(C)=O)CO[C@@H]1C[C@@H]2O [Taxol]
- Tumor volume inhibiting ratio ((TV of control−TV of test)×100/TV of control): 67%
- Tumor weight inhibiting ratio ((TW of control−TW of test)×100/TW of control): 64%
- Tumor size (mean±S.D., 5 mice): 649 ± 182 mm^3
- Tumor weight (mean±S.D., 5 mice): 0.61 ± 0.3 g

Reference: patent US20120003262A1, “ANTICANCER HEALTH FOOD CONTAINING PHELLINUS LINTEUS AND VEGETABLE WORMS” (HAN KOOK SHIN YAK CO., LTD., priority 2008, published 2012)
